Target: T1, rat α1B+α2b+β1b channels (N-type channels) (Rattus norvegicus, UniProt Q02294)
T1 construct: expressed in transfected cells
Assay: Whole cell patch recordings, N-type calcium channel block (Examples 1 and 4)
Format: cell-based
Conditions: block of N-type calcium channels, HEK cells, 5 mM barium as charge carrier
Description: Antagonist activity was measured using whole cell patch recordings on human embryonic kidney cells either stably or transiently expressing rat α1B+α2b+β1b channels (N-type channels) with 5 mM barium as a charge carrier.
For transient expression, host cells, such as human embryonic kidney cells, HEK 293 (ATCC# CRL 1573) were grown in standard DMEM medium supplemented with 2 mM glutamine and 10% fetal bovine serum. HEK 293 cells were transfected by a standard calcium-phosphate-DNA coprecipitation method using the rat α1B+β1b+α2δ N-type calcium channel subunits in a vertebrate expression vector (for example, see Current Protocols in Molecular Biologyl ).
After an incubation period of from 24 to 72 hrs the culture medium was removed and replaced with external recording solution (see below). Whole cell patch clamp experiments were performed using an Axopatch 200B amplifier (Axon Instruments, Burlingame, Calif.) linked to an IBM compatible personal computer equipped with pCLAMP software. Borosilicate glass patch pipettes (Sutter Instrument Co., Novato, Calif.) were polished (Microforge, Narishige, Japan) to a resistance of about 4 MΩ when filled with cesium methanesulfonate internal solution (composition in MM: 109 CsCH3SO4, 4 MgCl2, 9 EGTA, 9 HEPES, pH 7.2). Cells were bathed in 5 mM Ba^++ (in mM: 5 BaCl2, 1 MgCl2, 10 HEPES, 40 tetraethylammonium chloride, 10 glucose, 87.5 CsCl pH 7.2). Current data shown were elicited by a train of 100 ms test pulses at 0.066 Hz from −100 mV and/or −80 mV to various potentials (min. −20 mV, max. +30 mV). Drugs were perfused directly into the vicinity of the cells using a microperfusion system.
Normalized dose-response curves were fit (Sigmaplot 4.0, SPSS Inc., Chicago, Ill.) by the Hill equation to determine IC50 values. Steady-state inactivation curves were plotted as the normalized test pulse amplitude following 5 s inactivating prepulses at +10 mV increments. Inactivation curves were fit (Sigmaplot 4.0) with the Boltzman equation, Ipeak (normalized)=1/(1+exp((V−Vh)z/25.6)), where V and Vh are the conditioning and half inactivation potentials, respectively, and z is the slope factor.

T1 sequence (Q02294 whole entry): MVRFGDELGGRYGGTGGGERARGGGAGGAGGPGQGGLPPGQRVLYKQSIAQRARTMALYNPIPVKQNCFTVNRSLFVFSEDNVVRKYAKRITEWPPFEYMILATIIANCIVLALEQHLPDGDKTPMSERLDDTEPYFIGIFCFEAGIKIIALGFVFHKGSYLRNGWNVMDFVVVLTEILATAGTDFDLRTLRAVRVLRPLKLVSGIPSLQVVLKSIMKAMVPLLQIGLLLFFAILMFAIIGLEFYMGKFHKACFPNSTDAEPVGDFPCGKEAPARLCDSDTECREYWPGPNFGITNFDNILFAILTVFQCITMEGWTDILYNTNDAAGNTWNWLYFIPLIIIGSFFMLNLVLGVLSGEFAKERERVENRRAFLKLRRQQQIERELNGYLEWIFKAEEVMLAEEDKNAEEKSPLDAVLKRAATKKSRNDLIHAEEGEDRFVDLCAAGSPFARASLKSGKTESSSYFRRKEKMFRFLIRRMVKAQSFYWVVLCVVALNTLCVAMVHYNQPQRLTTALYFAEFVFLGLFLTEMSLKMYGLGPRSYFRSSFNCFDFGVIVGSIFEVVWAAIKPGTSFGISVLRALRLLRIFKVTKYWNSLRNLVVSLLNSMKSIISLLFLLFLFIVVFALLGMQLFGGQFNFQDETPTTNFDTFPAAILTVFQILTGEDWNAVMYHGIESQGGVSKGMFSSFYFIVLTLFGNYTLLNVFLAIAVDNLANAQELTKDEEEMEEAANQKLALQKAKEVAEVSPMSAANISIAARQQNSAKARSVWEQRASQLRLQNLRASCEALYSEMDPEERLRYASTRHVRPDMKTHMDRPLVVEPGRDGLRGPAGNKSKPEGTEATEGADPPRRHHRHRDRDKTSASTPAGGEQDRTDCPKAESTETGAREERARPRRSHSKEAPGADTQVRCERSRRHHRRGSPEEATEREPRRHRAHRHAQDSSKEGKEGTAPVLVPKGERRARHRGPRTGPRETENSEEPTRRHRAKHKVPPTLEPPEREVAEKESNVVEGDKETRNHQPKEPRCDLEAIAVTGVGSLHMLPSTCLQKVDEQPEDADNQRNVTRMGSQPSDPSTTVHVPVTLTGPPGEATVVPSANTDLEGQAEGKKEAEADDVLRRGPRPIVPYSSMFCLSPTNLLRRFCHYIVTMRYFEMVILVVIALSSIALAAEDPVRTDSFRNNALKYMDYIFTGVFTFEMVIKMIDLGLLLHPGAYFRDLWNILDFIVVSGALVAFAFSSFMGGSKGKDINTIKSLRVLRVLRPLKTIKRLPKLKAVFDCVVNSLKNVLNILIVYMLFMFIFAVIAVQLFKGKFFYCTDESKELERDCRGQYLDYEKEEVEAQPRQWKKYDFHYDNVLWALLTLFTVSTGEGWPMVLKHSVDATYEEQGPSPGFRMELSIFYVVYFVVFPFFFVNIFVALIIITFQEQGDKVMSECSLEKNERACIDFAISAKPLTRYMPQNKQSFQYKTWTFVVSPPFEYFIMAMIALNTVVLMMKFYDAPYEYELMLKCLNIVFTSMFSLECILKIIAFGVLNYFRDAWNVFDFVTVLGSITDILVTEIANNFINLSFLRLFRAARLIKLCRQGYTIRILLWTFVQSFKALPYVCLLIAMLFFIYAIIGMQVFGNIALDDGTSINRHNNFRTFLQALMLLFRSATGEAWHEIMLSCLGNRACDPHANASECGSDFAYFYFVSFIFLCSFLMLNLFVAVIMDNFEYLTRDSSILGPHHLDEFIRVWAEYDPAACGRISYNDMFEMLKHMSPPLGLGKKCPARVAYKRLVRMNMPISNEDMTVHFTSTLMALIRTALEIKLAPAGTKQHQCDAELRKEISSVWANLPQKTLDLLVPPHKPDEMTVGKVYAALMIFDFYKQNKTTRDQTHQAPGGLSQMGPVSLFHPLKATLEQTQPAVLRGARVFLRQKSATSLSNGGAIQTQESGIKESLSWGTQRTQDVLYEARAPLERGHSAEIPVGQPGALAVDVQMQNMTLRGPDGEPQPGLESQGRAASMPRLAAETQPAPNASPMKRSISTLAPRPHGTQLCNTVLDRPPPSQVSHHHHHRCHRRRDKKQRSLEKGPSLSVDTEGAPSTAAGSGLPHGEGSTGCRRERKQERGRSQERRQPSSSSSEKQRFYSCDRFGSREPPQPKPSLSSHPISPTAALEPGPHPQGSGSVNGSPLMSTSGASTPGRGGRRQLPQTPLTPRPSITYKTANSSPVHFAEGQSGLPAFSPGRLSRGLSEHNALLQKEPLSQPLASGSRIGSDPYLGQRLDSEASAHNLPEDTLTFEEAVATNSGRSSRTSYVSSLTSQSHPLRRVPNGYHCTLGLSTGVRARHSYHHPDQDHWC
T1 sequence (P54290 25-944 partner limits assumed): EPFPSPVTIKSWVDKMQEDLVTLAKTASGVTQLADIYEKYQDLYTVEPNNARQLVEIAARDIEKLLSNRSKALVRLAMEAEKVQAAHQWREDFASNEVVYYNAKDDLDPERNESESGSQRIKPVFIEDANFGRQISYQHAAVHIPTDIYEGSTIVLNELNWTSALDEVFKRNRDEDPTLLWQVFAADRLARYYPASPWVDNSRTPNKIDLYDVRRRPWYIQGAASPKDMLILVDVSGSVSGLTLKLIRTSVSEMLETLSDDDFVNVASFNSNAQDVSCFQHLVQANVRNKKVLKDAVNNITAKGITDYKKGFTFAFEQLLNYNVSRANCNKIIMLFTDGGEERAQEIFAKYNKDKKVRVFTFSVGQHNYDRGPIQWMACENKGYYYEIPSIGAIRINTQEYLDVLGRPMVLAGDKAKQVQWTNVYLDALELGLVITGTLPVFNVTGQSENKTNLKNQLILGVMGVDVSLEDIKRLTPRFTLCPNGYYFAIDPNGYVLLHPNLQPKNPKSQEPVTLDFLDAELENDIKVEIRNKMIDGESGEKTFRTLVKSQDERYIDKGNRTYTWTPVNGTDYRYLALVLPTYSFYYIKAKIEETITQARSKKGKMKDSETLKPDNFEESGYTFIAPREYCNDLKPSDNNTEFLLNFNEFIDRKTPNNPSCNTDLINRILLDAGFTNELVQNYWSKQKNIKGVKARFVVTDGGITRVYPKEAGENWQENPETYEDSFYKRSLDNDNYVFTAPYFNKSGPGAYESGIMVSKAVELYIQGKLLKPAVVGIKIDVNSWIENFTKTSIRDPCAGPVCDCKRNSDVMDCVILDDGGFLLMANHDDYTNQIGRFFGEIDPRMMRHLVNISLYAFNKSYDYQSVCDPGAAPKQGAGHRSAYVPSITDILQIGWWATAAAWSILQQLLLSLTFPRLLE
T1 sequence (P54290 945-1091 partner limits assumed): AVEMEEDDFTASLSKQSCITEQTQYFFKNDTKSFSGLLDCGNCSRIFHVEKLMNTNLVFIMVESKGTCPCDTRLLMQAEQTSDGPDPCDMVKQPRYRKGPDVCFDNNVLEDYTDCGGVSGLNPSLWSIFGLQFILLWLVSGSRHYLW
T1 sequence (P54283 whole entry partner): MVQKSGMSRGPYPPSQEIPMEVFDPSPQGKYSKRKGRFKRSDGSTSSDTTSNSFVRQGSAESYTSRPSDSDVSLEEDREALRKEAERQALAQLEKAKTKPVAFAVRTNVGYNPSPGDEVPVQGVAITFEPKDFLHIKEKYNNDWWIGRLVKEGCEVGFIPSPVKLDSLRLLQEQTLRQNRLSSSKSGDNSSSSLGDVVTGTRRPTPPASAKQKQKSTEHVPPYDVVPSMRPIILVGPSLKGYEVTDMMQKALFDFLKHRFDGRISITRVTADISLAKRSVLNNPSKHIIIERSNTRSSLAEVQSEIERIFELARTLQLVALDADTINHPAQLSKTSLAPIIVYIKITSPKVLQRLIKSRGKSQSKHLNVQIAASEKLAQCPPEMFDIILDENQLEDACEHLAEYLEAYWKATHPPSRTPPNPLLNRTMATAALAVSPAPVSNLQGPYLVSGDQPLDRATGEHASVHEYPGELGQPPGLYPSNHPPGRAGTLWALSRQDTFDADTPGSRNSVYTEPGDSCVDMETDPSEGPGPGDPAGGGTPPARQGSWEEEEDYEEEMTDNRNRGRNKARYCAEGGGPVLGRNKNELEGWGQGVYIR

SMILES | IC50
c1ccc(C(CN2CCN(CC3CCCCC3)CC2)C2CCCCC2)cc1 (centres unmarked) [Φ, Cy; CHCH2; N; 1; Cy] | 20.2 µM
O=C(C(c1ccccc1)C1CCCCC1)N1CCN(CC=Cc2ccccc2)CC1 (centres unmarked) [Φ, Cy; CHCO; N; 1; CH═CHΦ] | 5.9 µM
c1ccc(C(CCN2CCC(NCC3CCCCC3)CC2)c2ccccc2)cc1 [Φ, Φ; CH(CH2)2; CHNH; 1; Cy] | 2 to 3 µM
c1ccc(CNC2CCN(CCC(c3ccccc3)c3ccccc3)CC2)cc1 [Φ, Φ; CH(CH2)2; CHNH; 1; Φ] | 2 µM
O=C(CCCCC(c1ccccc1)c1ccccc1)N1CCC(NCC2CCCCC2)CC1 [Φ, Φ; CH(CH2)4CO; CHNH; 1; Cy] | 0.75 µM
c1ccc(C(CN2CCC(NCC3CCCCC3)CC2)c2ccccc2)cc1 [Φ, Φ; CHCH2; CHNH; 1; Cy] | 3 to 4 µM
C(CCN1CCN(CC2CCCCC2)CC1)=C(c1ccccc1)c1ccccc1 [Φ, Φ; C═CH(CH2)2; N; 1; Cy] | 5.2 µM

The next lines start with the values.

IC50 | SMILES
~5 µM | c1ccc(CN2CCN(CC(c3ccccc3)C3CCCCC3)CC2)cc1 (centres unmarked) [Φ, Cy; CHCH2; N; 1; Φ]
35 µM | O=C(C(c1ccccc1)C1CCCCC1)N1CCN(CC(c2ccccc2)c2ccccc2)CC1 (centres unmarked) [Φ, Cy; CHCO; N; 1; CHΦ2]
14.2 µM | O=C(C(c1ccccc1)C1CCCCC1)N1CCN(Cc2ccccc2)CC1 (centres unmarked) [Φ, Cy; CHCO; N; 1; Φ]
~3 µM | c1ccc(CNC2CCN(CC(c3ccccc3)c3ccccc3)CC2)cc1 [Φ, Φ; CHCH2; CHNH; 1; Φ]

Source: US7064128B2, “Preferentially substituted calcium channel blockers” (NeuroMed Technologies, Inc., priority 1998, dated 2006)
